The text below walks through data of publication PMC10447463, “Data-mining unveils structure–property–activity correlation of viral infectivity enhancing self-assembling peptides” (Nature Communications, 2023).

Where two headings read alike, the source gives them in different places.

A short description of data set [1]: Turbidity, derived count rate of scattered light. The class given is physicochemical. Conditions: for Count Rate: derived count rate of scattered light (turbidity); for Log10 Count Rate: turbidity, derived count rate of scattered light, data of Figure 2D.
Data set [2] can be described thus: Zeta-potential measurement. The class given is physicochemical. In short, it runs like this:
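Charge on peptide aggregates was assessed by electrophoretic mobility in 1 mM KCl, converted per Smoluchowski. Prior aggregation: 1 mg/mL, pH 7.4 PBS, 1 d, RT.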

Data set [3] concerns HIV-1 infection of TZM-bl cells. Briefly: HIV-1 infectivity enhancement assay, β-galactosidase luminescence. Conditions: for Rel-EFC / Log10 Infection Rel EFC: 1.3 µM peptide; for Rel-EFC: infection relative to EF-C (QCKIKQIINMWQ = 1); for Log10 Infection Rel EFC: log10 of infection relative to EF-C; for Log Infectivity: Log10 infection relative to EF-C, TZM-bl cells, asymmetric std dev errors; for Log10 Infection Rel EF-C: HIV-1 infection of TZM-bl cells; for Log10 of Rel to EFC (Feb2021): Log10 of infection relative to EF-C, all peptides of FigS16; for Log10 Inf. rel. to EF-C: log10 of HIV-1 infection of TZM-bl cells relative to EF-C (EF-C = 0). Type of data set: cell-based.

A short description of data set [4]: Turbidity, derived count rate of scattered light. Type of data set: physicochemical. Conditions: for Count Rate / kcps: derived count rate of scattered light at 633 nm, 173°, from zeta-potential measurement, 0.1 mg/mL in 1 mM KCl after 1 d at 1 mg/mL in PBS, turbidity / microscopic aggregation, mean of triplicate. In short, it runs like this: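 One-day room-temperature aggregation at 1 mg/mL in PBS (pH 7.4) preceded measurement; samples then went into 1 mM KCl. Triplicates per sample, two independent experiments averaged.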

[5] abbreviates: zeta potential of peptide assemblies.
The mark [6] stands for this setting: zeta-potential of peptide, source data of Figure 2C.
[7] abbreviates: zeta-potential of the peptide assemblies, mean, Figure 3A source data.
Setting [8] is: Fig. S7 panel A (plotted against β-sheet content).
Where [9] appears, read: Log10 of infection rate relative to EF-C, Figure 3A source data.
Where [10] appears, read: infection rate relative to EF-C, log10, data of Figure 2D.
[11] abbreviates: infection rate relative to EF-C, log10, source data of Figure 2C.
The mark [12] stands for this setting: Log10 of derived count rate of scattered light (turbidity).
The mark [13] stands for this setting: turbidity, Log10 of derived count rate of scattered light, Figure 3A source data.
The mark [14] stands for this setting: turbidity, log10 of derived count rate of scattered light.
The mark [15] stands for this setting: Fig. S7 panel B (plotted against CR), rounded to two decimals.

Consider KIKIQIAMWQ, for which the “Count Rate” value in data set [1] came out at 540.9. Besides, the “Log10 Count Rate” value in data set [1], in data set [4] (setting [12]), in data set [4] (setting [13]) and in data set [4] (setting [14]) was 2.733 throughout. Besides, in data set [2] (setting [5]), the Zeta-Pot. was found to be 11.3. In addition, the “Zeta-Potential / mV” value in data set [2] (setting [6]) is recorded as 13.33 mV; in data set [2] (setting [7]), 11.3 mV. Moreover, in data set [3], the Rel-EFC is given as 0,39. Further, the “Log10 Infection Rel EFC” value in data set [3] was -0,41. Besides, in data set [3] (setting [8]), the “Log Infectivity” value was -0.4109. Also, the “Log10 Infection Rel EF-C” value is reported as -0.41 in data set [3] (setting [9]), -0.4109 in data set [3] (setting [10]) and -0.4109 in data set [3] (setting [11]). Also, in data set [3], the “Log10 of Rel to EFC (Feb2021)” value is -0.41. Moreover, the “Log10 Inf. rel. to EF-C” value in data set [3] was -0.4109. Also, the “Count Rate / kcps” value in data set [4] is reported as 541 kcps.

For the substance KIKIQIN, the “Count Rate” value in data set [1] stood at 43.43. Moreover, the “Log10 Count Rate” value in data set [1], in data set [4] (setting [12]), in data set [4] (logarithm of count rate in kcps), in data set [4] (setting [13]) and in data set [4] (setting [14]) was 1.638 throughout. For the same substance, in data set [2] (setting [5]), the Zeta-Pot. worked out at 3.34. For the same substance, the “Zeta-Potential / mV” value in data set [2] (setting [6]) stood at 4.4 mV; in data set [2] (setting [7]), 3.34 mV. Moreover, the Rel-EFC in data set [3] was 0,27. Also, in data set [3], the “Log10 Infection Rel EFC” value was -0,58. The “Log Infectivity” value in data set [3] (setting [8]) is reported as -0.5766. In addition, the results for the “Log10 Infection Rel EF-C” value in data set [3] (setting [9]), in data set [3] (setting [10]) and in data set [3] (setting [11]) were -0.58, -0.5766 and -0.5766, respectively. Further, the “Log10 of Rel to EFC (Feb2021)” value in data set [3] is -0.58. For the same substance, the “Log10 Inf. rel. to EF-C” value in data set [3] is -0.5766. In addition, in data set [4], the “Count Rate / kcps” value came to 43 kcps.

With KIKIQINAWQ, the “Count Rate” value in data set [1] was found to be 1494. Further, the “Log10 Count Rate” value in data set [1], in data set [4] (setting [12]), in data set [4] (setting [13]) and in data set [4] (setting [14]) was 3.174 throughout. Further, in data set [2] (setting [5]), the Zeta-Pot. is given as 13.1. The “Zeta-Potential / mV” value in data set [2] (setting [6]) is listed as 13.72 mV; in data set [2] (setting [7]), 13.1 mV. Besides, in data set [3], the Rel-EFC is 0,54. The “Log10 Infection Rel EFC” value in data set [3] is -0,27. Further, the “Log Infectivity” value in data set [3] (setting [8]) is recorded as -0.2703. The figures for the “Log10 Infection Rel EF-C” value in data set [3] (setting [9]), in data set [3] (setting [10]) and in data set [3] (setting [11]) were -0.27, -0.2703 and -0.2703, respectively. For the same substance, the “Log10 of Rel to EFC (Feb2021)” value in data set [3] is -0.27. Moreover, the “Log10 Inf. rel. to EF-C” value in data set [3] is -0.2703. In addition, the “Count Rate / kcps” value in data set [4] came to 1494 kcps.

In the case of KIKIQINM, the “Count Rate” value in data set [1] came to 262.1. Moreover, the “Log10 Count Rate” value in data set [1], in data set [4] (setting [12]), in data set [4] (setting [13]) and in data set [4] (setting [14]) was 2.418 in each case. For the same substance, the Zeta-Pot. in data set [2] (setting [5]) was 8.51. The “Zeta-Potential / mV” value in data set [2] (setting [6]) was found to be 10.17 mV; in data set [2] (setting [7]), 8.51 mV. In addition, the Rel-EFC in data set [3] is 0,36. For the same substance, the “Log10 Infection Rel EFC” value in data set [3] is recorded as -0,44. The “Log Infectivity” value in data set [3] (setting [8]) is -0.4404; in data set [3] (setting [15]) it was -0.44. Moreover, the results for the “Log10 Infection Rel EF-C” value in data set [3] (setting [9]), in data set [3] (setting [10]) and in data set [3] (setting [11]) were -0.44, -0.4404 and -0.4404, respectively. In addition, in data set [3], the “Log10 of Rel to EFC (Feb2021)” value was -0.44. The “Log10 Inf. rel. to EF-C” value in data set [3] is on record as -0.4404. Moreover, the “Count Rate / kcps” value in data set [4] turned out to be 262 kcps.

With KIKIQINMAQ, the “Count Rate” value in data set [1] amounted to 5859. For the same substance, the “Log10 Count Rate” value in data set [1], in data set [4] (setting [12]), in data set [4] (setting [13]) and in data set [4] (setting [14]) was 3.768 in each case. Besides, the Zeta-Pot. in data set [2] (setting [5]) amounted to 3.07. Further, the “Zeta-Potential / mV” value in data set [2] (setting [6]) turned out to be 6.27 mV; in data set [2] (setting [7]), 3.07 mV. The Rel-EFC in data set [3] is on record as 0,21. Also, the “Log10 Infection Rel EFC” value in data set [3] is -0,67. In data set [3] (setting [8]), the “Log Infectivity” value is -0.6722. Besides, the “Log10 Infection Rel EF-C” value was -0.67 in data set [3] (setting [9]), -0.6722 in data set [3] (setting [10]) and -0.6722 in data set [3] (setting [11]). Besides, the “Log10 of Rel to EFC (Feb2021)” value in data set [3] was -0.67. The “Log10 Inf. rel. to EF-C” value in data set [3] is on record as -0.6722. The “Count Rate / kcps” value in data set [4] is 5859 kcps.

In the case of KIKIQINMW, the “Count Rate” value in data set [1] is on record as 239.6. Besides, the “Log10 Count Rate” value in data set [1], in data set [4] (setting [12]), in data set [4] (setting [13]) and in data set [4] (setting [14]) was 2.38 each time. Also, the Zeta-Pot. in data set [2] (setting [5]) is 19.7. Further, the entries for the “Zeta-Potential / mV” value in data set [2] (setting [6]) and in data set [2] (setting [7]) were 17.12 mV and 19.7 mV, respectively. Further, the Rel-EFC in data set [3] was 2,16. In data set [3], the “Log10 Infection Rel EFC” value is 0,33. Also, in data set [3] (setting [8]), the “Log Infectivity” value amounted to 0.3339. The figures for the “Log10 Infection Rel EF-C” value in data set [3] (setting [9]), in data set [3] (setting [10]) and in data set [3] (setting [11]) were 0.33, 0.3339 and 0.3339, respectively. Further, the “Log10 of Rel to EFC (Feb2021)” value in data set [3] is listed as 0.33. The “Log10 Inf. rel. to EF-C” value in data set [3] is reported as 0.3339. In data set [4], the “Count Rate / kcps” value worked out at 240 kcps.

For the substance KIKIQINMWA, the “Count Rate” value in data set [1] came to 1101.2. The “Log10 Count Rate” value in data set [1], in data set [4] (setting [12]), in data set [4] (setting [13]) and in data set [4] (setting [14]) was 3.042 in each case. Besides, in data set [2] (setting [5]), the Zeta-Pot. worked out at 14.7. The “Zeta-Potential / mV” value amounted to 16.43 mV in data set [2] (setting [6]) and 14.7 mV in data set [2] (setting [7]). In addition, in data set [3], the Rel-EFC is 0,69. Further, the “Log10 Infection Rel EFC” value in data set [3] is on record as -0,16. In data set [3] (setting [8]), the “Log Infectivity” value is given as -0.1642. The “Log10 Infection Rel EF-C” value is given as -0.16 in data set [3] (setting [9]), -0.1642 in data set [3] (setting [10]) and -0.1642 in data set [3] (setting [11]). Moreover, the “Log10 of Rel to EFC (Feb2021)” value in data set [3] is recorded as -0.16. Besides, in data set [3], the “Log10 Inf. rel. to EF-C” value is -0.1642. For the same substance, the “Count Rate / kcps” value in data set [4] came to 1101 kcps.

Regarding KIKIQINMWQ, in data set [1], the “Count Rate” value was 2196. The “Log10 Count Rate” value in data set [1], in data set [4] (setting [12]), in data set [4] (setting [13]) and in data set [4] (setting [14]) was 3.342 in each case. The Zeta-Pot. in data set [2] is given as 14.87. Further, the “Zeta-Potential / mV” value in data set [2] (setting [6]) stood at 15.7 mV; in data set [2] (setting [7]), 14.87 mV. Moreover, in data set [3], the Rel-EFC is 0,3. Besides, in data set [3], the “Log10 Infection Rel EFC” value is reported as -0,53. Besides, the figures for the “Log Infectivity” value in data set [3] (setting [8]) and in data set [3] (setting [15]) were -0.5276 and -0.53, respectively. Further, the “Log10 Infection Rel EF-C” value is on record as -0.53 in data set [3] (setting [9]), -0.5276 in data set [3] (setting [10]) and -0.5276 in data set [3] (setting [11]). Also, the “Log10 of Rel to EFC (Feb2021)” value in data set [3] is given as -0.53. Further, in data set [3] (absolute infection signal, HIV-1 on TZM-bl cells, β-galactosidase luminescence), the “Abs. Inf.” value is on record as 6650. For the same substance, in data set [3], the “Log10 Inf. rel. to EF-C” value is given as -0.5276. The “Count Rate / kcps” value in data set [4] came out at 2196 kcps.
